For 26 molecules, IC50 cell viability results are on record in the supplement of paper PMC12137928.

For the assay, the system named is HCT116. As to conditions: 72 h. In outline:
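HCT116 cells went into 1536-well plates at 250 per well. CellTiter-Glo luminescence was expressed relative to vehicle (0%) and positive control (-100%) and then pattern-corrected. Both IC50 and maximal efficacy were taken from four-parameter Hill fits.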

Where a name gives a salt, the structure may show the parent alone.

With `CC(C)(S)[C@H](N)C(=O)O` [L-Penicillamine], the IC50 cell viability is, setting by setting: (ICRF193 0 nM) over 45.8 µM; (ICRF193 200 nM) over 45.8 µM.

As for `C[C@@H]1CCN(C(=O)CC#N)C[C@@H]1N(C)c1ncnc2[nH]ccc12` [Tofacitinib], the IC50 cell viability (ICRF193 0 nM) is over 45.8 µM and the IC50 cell viability (ICRF193 200 nM) was over 45.8 µM.

The molecule `C=C1CC[C@@]2(O)[C@H]3Cc4ccc(O)c5c4[C@@]2(CCN3CC2CC2)[C@H]1O5` [Nalmefene] had an IC50 cell viability (ICRF193 0 nM) of over 45.8 µM and an IC50 cell viability (ICRF193 200 nM) of over 45.8 µM.

On to `O=C(O)CNC(=O)c1ccccc1` [Hippuric acid], for which the IC50 cell viability was over 45.8 µM (ICRF193 0 nM) and over 45.8 µM (ICRF193 200 nM).

Take `CCCCC[C@@H](O)[C@H]1C(=O)O[C@H](C)[C@@H](O)/C=C/C=C/C=C/C=C/C=C(\C)[C@@H](O)[C@H](O)[C@H](O)C[C@H](O)C[C@H](O)C[C@H](O)C[C@H](O)C[C@@H]1O` [Pentamycin]: the IC50 cell viability was over 45.8 µM (ICRF193 0 nM) and over 45.8 µM (ICRF193 200 nM).

In the case of `CCCC(=O)Nc1c(I)cc(I)c(CC(CC)C(=O)O)c1I` (configuration not stated) [Sodium tyropanoate], the IC50 cell viability is over 45.8 µM (ICRF193 0 nM) and over 45.8 µM (ICRF193 200 nM).

Consider `CCC(=O)O[C@]1(C(=O)CCl)[C@@H](C)C[C@H]2[C@@H]3CCC4=CC(=O)C=C[C@]4(C)[C@@]3(F)[C@@H](O)C[C@@]21C` [Clobetasol propionate], for which the IC50 cell viability runs as follows: (ICRF193 0 nM) over 45.8 µM; (ICRF193 200 nM) over 45.8 µM.

For `O=C(Cn1cnnn1)N[C@@H]1C(=O)N2C(C(=O)O)=C(CSc3nncs3)CS[C@H]12` [Ceftezole sodium], the IC50 cell viability by setting is: (ICRF193 0 nM) over 45.8 µM; (ICRF193 200 nM) over 45.8 µM.

In the case of `COc1ccc(CCN(C)CCCC(C#N)(c2cc(OC)c(OC)c(OC)c2)C(C)C)cc1OC` (configuration not stated) [Gallopamil hydrochloride], the IC50 cell viability is over 45.8 µM (ICRF193 0 nM) and over 45.8 µM (ICRF193 200 nM).

Consider `C=C/C=C\CC1=C(C)[C@@H](OC(=O)[C@@H]2[C@@H](/C=C(\C)C(=O)OC)C2(C)C)CC1=O` [PYRETHRIN II], for which the IC50 cell viability is, setting by setting: (ICRF193 0 nM) over 45.8 µM; (ICRF193 200 nM) over 45.8 µM.

In the case of `CC1(C)S[C@@H]2[C@H](NC(=O)C(C(=O)Oc3ccc4c(c3)CCC4)c3ccccc3)C(=O)N2[C@H]1C(=O)O` (some centres not stated) [Carbenicillin indanyl], the IC50 cell viability is, setting by setting: (ICRF193 0 nM) over 45.8 µM; (ICRF193 200 nM) over 45.8 µM.

As for `CC(C)[N+](C)(CCOC(=O)C1c2ccccc2Oc2ccccc21)C(C)C` [Propantheline bromide], the IC50 cell viability by setting is: (ICRF193 0 nM) over 45.8 µM; (ICRF193 200 nM) over 45.8 µM.

Consider `OC[C@H]1O[C@@H](O[C@@H]2[C@@H](CO)OC(O)(CO)[C@H]2O)[C@H](O)[C@@H](O)[C@H]1O` (mixture of isomers) [Lactulose], for which the IC50 cell viability is over 45.8 µM (ICRF193 0 nM) and over 45.8 µM (ICRF193 200 nM).

As for `NC[C@@H]1CC[C@@H](N)[C@@H](O[C@H]2[C@H](O)[C@@H](O[C@H]3O[C@H](CO)[C@@H](O)[C@H](N)[C@H]3O)[C@H](N)C[C@@H]2N)O1` [DIBEKACIN], the IC50 cell viability by setting is: (ICRF193 0 nM) over 45.8 µM; (ICRF193 200 nM) over 45.8 µM.

As to `CCc1cc(C(N)=S)ccn1` [Ethionamide], the IC50 cell viability reads like this: (ICRF193 0 nM) over 45.8 µM; (ICRF193 200 nM) over 45.8 µM.

`O=C1N=C(N2CCOCC2)CN1c1ccc(Cl)cc1` [AWD 131-138] came in with an IC50 cell viability (ICRF193 0 nM) of over 45.8 µM and an IC50 cell viability (ICRF193 200 nM) of over 45.8 µM.

As to `Nc1ccc(S(N)(=O)=O)cc1` [Sulfanilamide], the IC50 cell viability is over 45.8 µM (ICRF193 0 nM) and over 45.8 µM (ICRF193 200 nM).

On to `CC(=O)Nc1ccccc1` [Acetanilide], for which the IC50 cell viability was over 45.8 µM (ICRF193 0 nM) and over 45.8 µM (ICRF193 200 nM).

With `CN1C(C(=O)Nc2ccccn2)=C(O)c2sc(Cl)cc2S1(=O)=O` [Lornoxicam], the IC50 cell viability by setting is: (ICRF193 0 nM) over 45.8 µM; (ICRF193 200 nM) over 45.8 µM.

As to `Cc1ccc2c(c1)[C@]13CCCC[C@@H]1[C@H](C2)N(C)CC3` [Dimemorfan phosphate], the IC50 cell viability is, setting by setting: (ICRF193 0 nM) over 45.8 µM; (ICRF193 200 nM) over 45.8 µM.

On to `CC(C)(C)C(=O)OCOC(=O)[C@@H]1N2C(=O)[C@@H](NC(=O)[C@H](N)c3ccccc3)[C@H]2SC1(C)C` [Pivampicillin], for which the IC50 cell viability by setting is: (ICRF193 0 nM) over 45.8 µM; (ICRF193 200 nM) over 45.8 µM.

Turning to `CCOC(=O)[C@@H](N)CS` [L-Cysteine ethyl ester hydrochloride], the IC50 cell viability is over 45.8 µM (ICRF193 0 nM) and over 45.8 µM (ICRF193 200 nM).

In the case of `CC(CC(c1ccccc1)c1ccccc1)NC(C)(C)C` (configuration not stated) [Terodiline hydrochloride], the IC50 cell viability (ICRF193 0 nM) was over 45.8 µM and the IC50 cell viability (ICRF193 200 nM) is over 45.8 µM.

With `CC(=O)NS(=O)(=O)c1ccc(N)cc1` [Sulfacetamide], the IC50 cell viability is over 45.8 µM (ICRF193 0 nM) and over 45.8 µM (ICRF193 200 nM).

With `N[C@@H](CSCC(=O)O)C(=O)O` [Carbocysteine], the IC50 cell viability was over 45.8 µM (ICRF193 0 nM) and over 45.8 µM (ICRF193 200 nM).

On to `N[C@H](Cc1ccccc1)C(=O)O` [D-Phenylalanine], for which the IC50 cell viability is, setting by setting: (ICRF193 0 nM) over 45.8 µM; (ICRF193 200 nM) over 45.8 µM.
